According to the supplement of paper PMC10627819:

Assays:
[1] = system: B. subtilis 168; assay: fitness (endpoint OD595 vs no drug) (fraction); higher = more growth
In short: (§1)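 Bacterial fitness was scored as optical density at the stationary-phase transition relative to the robust mean of no-drug control wells. Scores are capped at 1. The growth data were OD595 readings every 30 min for 14 h at 37 °C, background-subtracted against the first reading, from 384-well plates inoculated at OD595 0.01 in TSB, LB Lennox or CY.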

[2] = system: S. aureus Newman; assay: as above
In short: as §1

[3] = system: S. aureus DSM 20231; assay: as above
In short: as §1

[4] = system: S. pneumoniae D39V; assay: as above
In short: as §1

[5] = system: B. subtilis 168; assay: Bliss interaction score (quartile over a dose matrix) (fitness difference); higher = more antagonism (negative = synergy)
In short: (§2)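 Growth was read as OD595 when cultures entered stationary phase, and each value was divided by the plate's robust no-drug mean and capped at 1. This normalised ratio is the fitness value, and fitness for each single drug came from the combination data. The Bliss score subtracts the expected fitness, taken as the product, from the observed fitness and is given as quartiles across technical, biological and donor/recipient replicates.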

[6] = system: S. aureus Newman; assay: as above
In short: as §2

[7] = system: S. aureus DSM 20231; assay: as above
In short: as §2

[8] = system: S. pneumoniae D39V; assay: as above
In short: as §2

[9] = first compound 0.0625 µg/mL, partner 2.5 µg/mL
[10] = first compound 0.0625 µg/mL, partner 5 µg/mL
[11] = first compound 0.125 µg/mL, partner 1.25 µg/mL
[12] = first compound 0.125 µg/mL, partner 2.5 µg/mL
[13] = first compound 0.125 µg/mL, partner 5 µg/mL
[14] = first compound 0.0625 µg/mL, partner 0.15 µg/mL
[15] = first compound 0.0625 µg/mL, partner 0.3 µg/mL
[16] = first compound 0.0625 µg/mL, partner 0.6 µg/mL
[17] = first compound 0.125 µg/mL, partner 0.15 µg/mL
[18] = first compound 0.125 µg/mL, partner 0.3 µg/mL
[19] = first compound 0.125 µg/mL, partner 0.6 µg/mL
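Throughout, for Bliss interaction score (quartile over a dose matrix): first quartile when negative (synergy) and third quartile when positive (antagonism).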
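Throughout, for fitness (endpoint OD595 vs no drug): OD595 on entry to stationary phase over no-drug wells; at most 1.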

`CCC[C@@H]1C[C@@H](C(=O)N[C@@H]([C@H]2O[C@H](SC)[C@H](O)[C@@H](O)[C@H]2O)[C@H](C)Cl)N(C)C1` [Clindamycin] + CN1C2=CC=CC=C2N=C3C1=CC=CC3=O [Pyocyanin] gave a fitness ([1]; first compound 0.0039 µg/mL, partner 1.25 µg/mL, one replicate) of 0.892, a fitness ([1]; first compound 0.0039 µg/mL, partner 2.5 µg/mL, one replicate) of 0.922 and a fitness ([1]; first compound 0.0039 µg/mL, partner 5 µg/mL, one replicate) of 0.821. For the same molecule, the fitness ([1]; first compound 0.0078 µg/mL, partner 1.25 µg/mL, one replicate) was 0.424, the fitness ([1]; first compound 0.0078 µg/mL, partner 2.5 µg/mL, one replicate) was 0.451 and the fitness ([1]; first compound 0.0078 µg/mL, partner 5 µg/mL, one replicate) was 0.495. For the same molecule, the fitness ([1]; first compound 0.0156 µg/mL, partner 1.25 µg/mL, one replicate) was 0.863, the fitness ([1]; first compound 0.0156 µg/mL, partner 2.5 µg/mL, one replicate) was 0.802 and the fitness ([1]; first compound 0.0156 µg/mL, partner 5 µg/mL, one replicate) was 0.725. The fitness ([1]; first compound 0.0625 µg/mL, partner 1.25 µg/mL) was 0.562, the fitness [1, 9] was 0.576 and the fitness [1, 10] was 0.517. For the same molecule, the fitness [1, 11] was 0.388, the fitness [1, 12] was 0.389 and the fitness [1, 13] was 0.358. For the same molecule, the fitness ([1]; first compound 0.25 µg/mL, partner 1.25 µg/mL) was 0.34, the fitness ([1]; first compound 0.25 µg/mL, partner 2.5 µg/mL) was 0.319 and the fitness ([1]; first compound 0.25 µg/mL, partner 5 µg/mL) was 0.314. For the same molecule, the fitness ([2]; first compound 0.0312 µg/mL, partner 1.25 µg/mL) was 0.602, the fitness ([2]; first compound 0.0312 µg/mL, partner 2.5 µg/mL) was 0.424 and the fitness ([2]; first compound 0.0312 µg/mL, partner 5 µg/mL) was 0.155. It also gave a fitness [2, 9] of 0.179, a fitness [2, 10] of 0.0835 and a fitness [2, 11] of 0.0658. It also gave a fitness [2, 12] of 0.0591, a fitness [2, 13] of 0.0732 and a fitness [3, 10] of 0.0689. It also gave a fitness [3, 11] of 0.0414, a fitness [3, 12] of 0.0387 and a fitness [3, 13] of 0.0705. For the same molecule, the fitness ([4]; first compound 0.0125 µg/mL, partner 0.325 µg/mL) was 0.775, the fitness ([4]; first compound 0.0125 µg/mL, partner 0.65 µg/mL) was 0.742 and the fitness ([4]; first compound 0.0125 µg/mL, partner 1.3 µg/mL) was 0.564. For the same molecule, the fitness ([4]; first compound 0.015 µg/mL, partner 0.325 µg/mL, one replicate) was 0.89, the fitness ([4]; first compound 0.015 µg/mL, partner 0.65 µg/mL, one replicate) was 0.963 and the fitness ([4]; first compound 0.025 µg/mL, partner 0.325 µg/mL) was 0.49. For the same molecule, the fitness ([4]; first compound 0.025 µg/mL, partner 0.65 µg/mL) was 0.458, the fitness ([4]; first compound 0.025 µg/mL, partner 1.3 µg/mL) was 0.333 and the fitness ([4]; first compound 0.03 µg/mL, partner 0.325 µg/mL, one replicate) was 0.873. For the same molecule, the fitness ([4]; first compound 0.03 µg/mL, partner 0.65 µg/mL, one replicate) was 0.881, the fitness ([4]; first compound 0.05 µg/mL, partner 0.325 µg/mL) was 0.192 and the fitness ([4]; first compound 0.05 µg/mL, partner 0.65 µg/mL) was 0.147. It also gave a fitness ([4]; first compound 0.05 µg/mL, partner 1.3 µg/mL) of 0.0814, a fitness ([4]; first compound 0.06 µg/mL, partner 0.325 µg/mL, one replicate) of 0.554 and a fitness ([4]; first compound 0.06 µg/mL, partner 0.65 µg/mL, one replicate) of 0.689. It also gave a Bliss interaction score [5] of 0.0629, a Bliss interaction score [6] of -0.141 and a Bliss interaction score [7] of 0.025. It also gave a Bliss interaction score [8] of -0.0665.

`CCC[C@@H]1C[C@@H](C(=O)N[C@@H]([C@H]2O[C@H](SC)[C@H](O)[C@@H](O)[C@H]2O)[C@H](C)Cl)N(C)C1` [Clindamycin] + CN(N=O)C(=O)N[C@@H](C=O)[C@@H](O)[C@H](O)[C@H](O)CO [Streptozotocin] gave a fitness ([1]; first compound 0.0039 µg/mL, partner 0.15 µg/mL, one replicate) of 1, a fitness ([1]; first compound 0.0039 µg/mL, partner 0.3 µg/mL, one replicate) of no less than 1 and a fitness ([1]; first compound 0.0039 µg/mL, partner 0.6 µg/mL, one replicate) of no less than 1. It also gave a fitness ([1]; first compound 0.0078 µg/mL, partner 0.15 µg/mL, one replicate) of 0.954, a fitness ([1]; first compound 0.0078 µg/mL, partner 0.3 µg/mL, one replicate) of 0.857 and a fitness ([1]; first compound 0.0078 µg/mL, partner 0.6 µg/mL, one replicate) of 0.915. It also gave a fitness ([1]; first compound 0.0156 µg/mL, partner 0.15 µg/mL, one replicate) of 0.951, a fitness ([1]; first compound 0.0156 µg/mL, partner 0.3 µg/mL, one replicate) of 0.894 and a fitness ([1]; first compound 0.0156 µg/mL, partner 0.6 µg/mL, one replicate) of 0.89. For the same molecule, the fitness ([1]; first compound 0.0625 µg/mL, partner 0.15 µg/mL, one replicate) was 0.545, the fitness ([1]; first compound 0.0625 µg/mL, partner 0.3 µg/mL, one replicate) was 0.504 and the fitness ([1]; first compound 0.0625 µg/mL, partner 0.6 µg/mL, one replicate) was 0.521. For the same molecule, the fitness ([1]; first compound 0.125 µg/mL, partner 0.15 µg/mL, one replicate) was 0.41, the fitness ([1]; first compound 0.125 µg/mL, partner 0.3 µg/mL, one replicate) was 0.383 and the fitness ([1]; first compound 0.125 µg/mL, partner 0.6 µg/mL, one replicate) was 0.374. For the same molecule, the fitness ([1]; first compound 0.25 µg/mL, partner 0.15 µg/mL, one replicate) was 0.378, the fitness ([1]; first compound 0.25 µg/mL, partner 0.3 µg/mL, one replicate) was 0.366 and the fitness ([1]; first compound 0.25 µg/mL, partner 0.6 µg/mL, one replicate) was 0.365. The fitness ([2]; first compound 0.0312 µg/mL, partner 0.15 µg/mL) was 0.608, the fitness ([2]; first compound 0.0312 µg/mL, partner 0.3 µg/mL) was 0.612 and the fitness ([2]; first compound 0.0312 µg/mL, partner 0.6 µg/mL) was 0.475. The fitness [2, 14] was 0.329, the fitness [2, 15] was 0.336 and the fitness [2, 16] was 0.243. The fitness [2, 17] was 0.0373, the fitness [2, 18] was 0.0413 and the fitness [2, 19] was 0.0299. For the same molecule, the fitness [3, 14] was 0.0812, the fitness [3, 15] was 0.0698 and the fitness [3, 16] was 0.0805. For the same molecule, the fitness [3, 17] was 0.0369, the fitness [3, 18] was 0.0299 and the fitness [3, 19] was 0.0239. The fitness ([4]; first compound 0.0125 µg/mL, partner 1.2 µg/mL) was 0.661, the fitness ([4]; first compound 0.0125 µg/mL, partner 2.4 µg/mL) was 0.682 and the fitness ([4]; first compound 0.0125 µg/mL, partner 4.8 µg/mL) was 0.688. The fitness ([4]; first compound 0.015 µg/mL, partner 1.2 µg/mL, one replicate) was 0.817, the fitness ([4]; first compound 0.015 µg/mL, partner 2.4 µg/mL, one replicate) was 0.908 and the fitness ([4]; first compound 0.015 µg/mL, partner 4.8 µg/mL, one replicate) was 0.909. It also gave a fitness ([4]; first compound 0.025 µg/mL, partner 1.2 µg/mL) of 0.413, a fitness ([4]; first compound 0.025 µg/mL, partner 2.4 µg/mL) of 0.439 and a fitness ([4]; first compound 0.025 µg/mL, partner 4.8 µg/mL) of 0.445. The fitness ([4]; first compound 0.03 µg/mL, partner 1.2 µg/mL, one replicate) was 0.702, the fitness ([4]; first compound 0.03 µg/mL, partner 2.4 µg/mL, one replicate) was 0.79 and the fitness ([4]; first compound 0.03 µg/mL, partner 4.8 µg/mL, one replicate) was 0.71. For the same molecule, the fitness ([4]; first compound 0.05 µg/mL, partner 1.2 µg/mL) was 0.175, the fitness ([4]; first compound 0.05 µg/mL, partner 2.4 µg/mL) was 0.207 and the fitness ([4]; first compound 0.05 µg/mL, partner 4.8 µg/mL) was 0.196. The fitness ([4]; first compound 0.06 µg/mL, partner 1.2 µg/mL, one replicate) was 0.595, the fitness ([4]; first compound 0.06 µg/mL, partner 2.4 µg/mL, one replicate) was 0.666 and the fitness ([4]; first compound 0.06 µg/mL, partner 4.8 µg/mL, one replicate) was 0.554. The Bliss interaction score [5] was 0.0373, the Bliss interaction score [6] was 0.0448 and the Bliss interaction score [7] was -0.0342. The Bliss interaction score [8] was -0.0563.
